The values that follow come from US20230049350A1, “COMPOUNDS FOR TREATING BRAIN CANCER” (Purdue Pharmaceutical Products L.P., priority 2014, published 2023).

One may read the pIC50 as the negative decadic logarithm of the IC50, by convention in mol/L.

One test concerns NCI-60 cell lines. To be noted: read-out: median IC50 value; cited from earlier work.
In the next test the test system is U251. Description: s.c. xenograft model of GBM, U251, time to progression. The class given is in vivo, mice. The note with it: for time to progression of the tumours: U251G xenograft. The protocol: Next, adopting the procedure of Example 3, s.c. xenograft models of GBMs in mice were prepared using the GBM cell lines U251 and U87.
The U251 mice prepared as above were subjected either subjected to radiotherapy (2 Gy for 5 consecutive days), treatment with EDO-S101 (60 mg/kg intravenously at days 1, 8 and 15 of the treatment cycle) or control only. Before any irradiation mice were anesthetized with a mixture of ketamine (25 mg/ml)/xylazine (5 mg/ml). Anesthetized tumor-bearing mice received a focal irradiation at the dose of 2 Gy for 5 consecutive days. Irradiation was delivered using an X-ray linear accelerator at a dose rate of 200 cGy/min at room temperature. All mice were shielded with a specially designed lead apparatus to allow irradiation to the right hind limb. Mice were kept under these conditions until all irradiation finished.
A study was made of the progression of the GBM according to the procedure of Example 3.
In a follow up experiment, U251 mice prepared in the same manner were either subjected to the current gold standard treatment of radiotherapy and temozolomide (2 Gy for 5 consecutive days and 16 mg/kg for 5 consecutive days, po), treatment with EDO-S101 (60 mg/kg, intravenously at days 1, 8 and 15 of the treatment cycle), treatment with EDO-S101 and radiotherapy (2 Gy for 5 consecutive days and 60 mg/kg, intravenously at days 1, 8 and 15 of the treatment cycle) or control.

In the next test the test system is OCI-LY10B lymphoma cells. The experiment in a line: Murine model for primary CNS lymphoma, intracerebral OCI-LY10B. The class given is in vivo, mice. The note with it: for tumour growth: iv days +4, +11, +18; for median survival: iv days +4, +11, +18, EDO-S101 60 mg/kg, bendamustine 50 mg/kg, controls 48 days. As for the experimental part:
The procedure of Example 3 was repeated, except the murine models were created with 1×10^5 luciferase-transfected OCI-LY10B lymphoma cells to create a model of primary CNS lymphoma. EDO-S101 (60 mg/kg body weight), bendamustine (50 mg/kg body weight) and control was administered intravenously via a tail vein to separate groups of the test mice on days +4, +11 and +18 post intracerebral implantation of the OCI-LY10B lymphoma cells. […] EDO-S101 therefore appears to be a promising treatment for primary CNS lymphoma.

The next test concerns GBM12 cells. The experiment in a line: Intracerebral luciferase-transfected GBM12 murine brain tumour model. To be noted: for median survival: IV weekly day +4, +11, +18, EDO-S101 60 mg/kg, bendamustine 50 mg/kg, controls 52 days. The class given is in vivo, athymic mice. As for the experimental part: Therapeutic activity of EDO-S101 was determined in murine brain tumour models against GBM, based on tumour growth as determined by bioluminescence imaging and survival analysis as determined by Kaplan-Meier analysis.
Murine brain tumour models were created by intracerebral injection of 3×10^5 luciferase-transfected GBM12 cells in athymic mice under aesthesia using a stereotactic platform. GBM12 is a MGMT negative tumour cell line. Eight-week-old athymic mice underwent minimum 7 \-day acclimation/quarantine prior to surgery. Surgery was performed in a laminar flow hood under sterile conditions. Tylenol 300 mg/kg PO was given for analgesia 24 hours before the surgery continuing 48 hours postoperatively. Aesthesia was achieved by inhalation of 1-2% isoflurane. After the mouse became well anesthetized, it was placed in the Kopf stereotactic instrument. A small amount of BNP antibiotic cream (a mixture of Bacitracin, Neomycin and Polymyxin) was smeared on its eyes to prevent infection and corneal damage during surgery. A strip of soft fabric was placed over the mouse’s body and tail to prevent excessive heat loss during surgery. The scalp area was cleaned with a 2% solution of Betadine and dried with cotton tipped applicator. A midline sagittal incision was made in the scalp.
A small burr hole was drilled in the left skull with a surgical drill (Kopf) or a Dremel drill according to the coordinates (AP: 0.5 mm, LM: 2.5 mm) as determined by reference to the mouse brain atlas by Franklin and Paxinos. […] The mice were monitored post-operatively at least twice a day for 5 days or until recovery is complete. […]
After intracerebral injection of the GBM cells, all the mice were subjected to bioluminescence imaging (BLI) twice a week starting at day-4 post-intracerebral injection to monitor the real-time in vivo tumour growth. […] Peak luminescent signals were recorded 10 minutes after luciferin injection. Regions of interest encompassing the intracranial area of signal were defined using Living Image software (Xenogen, Alameda, CA), and the total photons/s/steradian /cm2 was recorded. […]

Where [1] appears, read: drug in combination with radiotherapy 2 Gy x 5 days, EDO-S101 60 mg/kg iv days 1, 8, 15, temozolomide 16 mg/kg po x 5 days.

Molecules are shown by their SMILES. pIC50: −log10 of the molar value.

On to `Cn1c(CCCCCCC(=O)NO)nc2cc(N(CCCl)CCCl)ccc21` [EDO-S101], for which the pIC50 in the test on NCI-60 cell lines was 5.66. The “time to progression of the tumours” value is “over 50 days” with U251 (drug alone, 60 mg/kg iv days 1, 8, 15, control approximately 17-18 days) and “over 50 days” with U251 (setting [1]). Moreover, the “time to progression versus radiotherapy-treated tumours” value in the test with U251 (U251 s.c. xenograft, drug alone, FIG. 11) was “considerably longer”. In addition, the “time to progression versus EDO-S101 alone and versus radiotherapy and temozolomide” value with U251 (U251 s.c. xenograft, drug plus radiotherapy, FIG. 12) is reported as “significantly longer”. The tumour growth entry in the test with OCI-LY10B lymphoma cells is listed as “significantly suppressed tumour growth”. Further, the median survival is recorded as 62 days in the test on OCI-LY10B lymphoma cells and 66 days in the test with GBM12 cells. For the same compound, in the test on GBM12 cells (IV 60 mg/kg day +4, +11, +18), the “tumour growth (bioluminescence imaging)” value is “suppression of tumour growth”.

For `Cn1c(CCCC(=O)O)nc2cc(N(CCCl)CCCl)ccc21` [bendamustine], the pIC50 with NCI-60 cell lines is 4.14. Also, in the test on OCI-LY10B lymphoma cells, the tumour growth result is “significantly suppressed tumour growth” and the median survival amounted to 54 days. The median survival with GBM12 cells is on record as 58 days.

In the case of `Cn1nnc2c(C(N)=O)ncn2c1=O` [temozolomide], the “time to progression of the tumours” value with U251 (setting [1]) stood at 42 days.
